Data from PubChem BioAssay AID651650 (Sanford-Burnham Center for Chemical Genomics, 2012).
Calls of active or inactive are those of the source.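 Rule for the calls: active = mean IC50 below 20 µM in each of the two panels, so potent in both; inactive = the rest.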

Biological target: Neuropilin-1 (Homo sapiens) (UniProt O14786)
Test: NRP-1 b1b2 CendR peptide binding inhibitors, dose response, biochemical, FP and AlphaScreen panel (AID 651650)
Details: NRP-1 b1b2 / RPARPAR peptide binding, FP or AlphaScreen
[1] = AlphaScreen, run 1, individual panel run IC50
[2] = FP, run 1, individual panel run IC50
[3] = FP, run 2, individual panel run IC50

Neuropilin-1 (Homo sapiens), sequence (O14786 whole entry, looked up): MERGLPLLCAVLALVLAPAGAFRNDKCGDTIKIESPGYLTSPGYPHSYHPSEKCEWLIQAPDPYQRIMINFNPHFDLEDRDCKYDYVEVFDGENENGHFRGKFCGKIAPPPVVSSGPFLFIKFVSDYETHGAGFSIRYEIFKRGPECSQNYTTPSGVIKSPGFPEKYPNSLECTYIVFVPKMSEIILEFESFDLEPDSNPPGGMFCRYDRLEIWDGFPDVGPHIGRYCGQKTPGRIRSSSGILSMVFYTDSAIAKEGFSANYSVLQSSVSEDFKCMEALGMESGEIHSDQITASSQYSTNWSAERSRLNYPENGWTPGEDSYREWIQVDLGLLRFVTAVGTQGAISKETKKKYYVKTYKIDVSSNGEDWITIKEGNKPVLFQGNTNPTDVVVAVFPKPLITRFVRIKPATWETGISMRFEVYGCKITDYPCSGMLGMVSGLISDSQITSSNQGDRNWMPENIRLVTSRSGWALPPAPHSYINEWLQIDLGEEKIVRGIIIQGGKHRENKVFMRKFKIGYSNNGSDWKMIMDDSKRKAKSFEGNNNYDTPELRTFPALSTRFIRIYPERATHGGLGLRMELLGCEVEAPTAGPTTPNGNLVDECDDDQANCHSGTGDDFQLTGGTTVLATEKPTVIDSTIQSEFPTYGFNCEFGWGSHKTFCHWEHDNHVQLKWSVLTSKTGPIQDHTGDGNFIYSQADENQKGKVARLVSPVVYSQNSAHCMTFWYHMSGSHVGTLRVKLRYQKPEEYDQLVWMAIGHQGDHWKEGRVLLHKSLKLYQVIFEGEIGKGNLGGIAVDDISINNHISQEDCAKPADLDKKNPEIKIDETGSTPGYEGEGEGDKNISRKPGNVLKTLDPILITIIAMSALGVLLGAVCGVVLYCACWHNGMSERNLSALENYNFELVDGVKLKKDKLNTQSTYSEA

Compound	IC50 (AlphaScreen, mean of runs)	IC50 [1] [µM]	IC50 (FP, mean of runs)	IC50 [2] [µM]	IC50 [3] [µM]
O=C(O)CCCC(=O)N1CCc2cc(S(=O)(=O)N3CCc4ccccc43)ccc21	> 100 µM (inactive)	> 100	> 95 µM (inactive)	> 95	> 95
CCOC(=O)N1CCN(C(=O)Nc2ccc3nc(C)c(C)nc3c2)CC1	> 100 µM (inactive)	> 100	> 95 µM (inactive)	> 95	> 95
COc1ccc(C(=O)COC(=O)C(CCSC)NS(=O)(=O)c2ccc(Cl)cc2)cc1 (stereo not given)	> 100 µM (inactive)	> 100	> 95 µM (inactive)	> 95	> 95
COc1cc(Cn2nnc3ccccc32)cc(Br)c1O	> 100 µM (inactive)	> 100	> 95 µM (inactive)	> 95	> 95
CCc1ccc(C2CC(=O)N(c3cccc(F)c3)C3=C2C(=O)OC3)cc1 (stereo not given)	> 100 µM (inactive)	> 100	> 95 µM (inactive)	> 95	> 95
c1ccc2c3n(nc2c1)CCCO3	> 100 µM (inactive)	> 100	> 95 µM (inactive)	> 95	> 95
COc1cccc(N2[C@@H](CC(C)=O)c3ccc(/C=C/C(C)=O)cc3S2(=O)=O)c1	> 100 µM (inactive)	> 100	> 95 µM (inactive)	> 95	> 95
COc1cc(CN2C[C@@H](CO)O[C@@H](n3cnc4c(N5CCN(c6ccccc6)CC5)ncnc43)C2)cc(OC)c1OC	inactive	96.3	> 95 µM (inactive)	> 95	> 95
COc1ccccc1N1CCN(C2CCCN(C(=O)Cn3cccn3)C2)CC1 (stereo not given)	> 100 µM (inactive)	> 100	> 95 µM (inactive)	> 95	> 95
O=C(CN1C2=NCCN2c2ccccc21)c1ccco1	> 100 µM (inactive)	> 100	> 95 µM (inactive)	> 95	> 95
O=C(O)c1ccccc1CSc1ccccn1	16.5 µM	16.5	> 95 µM (inactive)	> 95	> 95
COc1ccccc1N1CCN(C(=O)C2c3ccccc3Oc3ccccc32)CC1	> 100 µM (inactive)	> 100	> 95 µM (inactive)	> 95	> 95
O=c1c2ccccc2nc2n1C(CSc1ccc(F)cc1)CS2 (stereo not given)	11.5 µM	11.5	> 95 µM (inactive)	> 95	> 95
Cc1ccccc1Nc1cc(=O)oc2ccccc12	> 100 µM (inactive)	> 100	> 95 µM (inactive)	> 95	> 95
COc1ccc(NC(=O)C(C)Sc2ccccc2)cc1 (stereo not given)	> 100 µM (inactive)	> 100	> 95 µM (inactive)	> 95	> 95
COc1cccc(-c2ccc3c(c2)N(Cc2ccccc2OC)C(=O)C(C)S3)c1 (stereo not given)	> 100 µM (inactive)	> 100	> 95 µM (inactive)	> 95	> 95
O=C(Nc1cccc(S(=O)(=O)N2CCCCC2)c1)c1ccc([N+](=O)[O-])o1	> 100 µM (inactive)	> 100	> 95 µM (inactive)	> 95	> 95
COc1ccc(CCNC(=O)c2ccc(Cl)c(S(=O)(=O)N(C)c3ccccc3)c2)cc1	> 100 µM (inactive)	> 100	> 95 µM (inactive)	> 95	> 95
CC(=O)C(=Cc1ccc(Cl)cc1)C(=O)c1ccccc1	> 100 µM (inactive)	> 100	> 95 µM (inactive)	> 95	> 95
C=C1CCN(C(C(=O)OC)C(C)C)S(=O)(=O)c2ccc(F)cc21 (stereo not given)	> 100 µM (inactive)	> 100	> 95 µM (inactive)	> 95	> 95
Cc1ccccc1-n1ncc2c1CC(C)(C)CC2NC(=O)c1ccncc1 (stereo not given)	> 100 µM (inactive)	> 100	> 95 µM (inactive)	> 95	> 95
Cc1ccc(NNS(=O)(=O)c2ccc(C)cc2)cc1	> 100 µM (inactive)	> 100	> 95 µM (inactive)	> 95	> 95
Cc1ccccc1OCC1Cc2c(nc(N)c(C#N)c2N)O1 (stereo not given)	> 100 µM (inactive)	> 100	> 95 µM (inactive)	> 95	> 95

Compound	IC50 (AlphaScreen, mean of runs)	IC50 [1] [µM]	IC50 (FP, mean of runs)	IC50 [2] [µM]	IC50 [3] [µM]
CCCc1c(O)c2ccccc2[nH]c1=O	> 100 µM (inactive)	> 100	> 95 µM (inactive)	> 95	> 95
CCCN=C1N/C(=C\c2ccco2)C(=O)N1c1ccccc1	> 100 µM (inactive)	> 100	> 95 µM (inactive)	> 95	> 95
O=C(NC1CC1)c1ccc(COc2ccc(F)cc2)o1	> 100 µM (inactive)	> 100	> 95 µM (inactive)	> 95	> 95
CC(=O)C(C(c1ccccc1)N1CCCc2ccccc21)N1CCOCC1 (stereo not given)	inactive	72.2	> 95 µM (inactive)	> 95	> 95
Cc1occc1C(=O)N1N=C(C2CC2)CC1(O)C(F)(F)F (stereo not given)	> 100 µM (inactive)	> 100	> 95 µM (inactive)	> 95	> 95
O=C(COC(=O)C1CC(=O)N(Cc2ccccc2)C1)Nc1ccccc1F (stereo not given)	inactive	44.6	> 95 µM (inactive)	> 95	> 95
O=c1oc(Nc2ccccc2F)nc2ccccc12	> 100 µM (inactive)	> 100	> 95 µM (inactive)	> 95	> 95
CC(=O)Nc1cc(F)c2c(c1F)Cc1cc(F)ccc1-2	inactive	89.2	> 95 µM (inactive)	> 95	> 95
Cc1nc2c(OCCC3CCCCC3)cccn2c1N(C)C(=O)CCC1CCCC1	> 100 µM (inactive)	> 100	> 95 µM (inactive)	> 95	> 95
O=C(NCc1ccccc1)C(c1cccnc1)N(C(=O)c1ccccn1)c1ccccc1F (stereo not given)	> 100 µM (inactive)	> 100	> 95 µM (inactive)	> 95	> 95
O=C(Nc1cccc(C(F)(F)F)c1)C1Cc2c(-c3cccc(F)c3)ccnc2O1 (stereo not given)	> 100 µM (inactive)	> 100	> 95 µM (inactive)	> 95	> 95
NC(=O)C1CCCN(C(=O)c2ccc3nc(Cc4cccc(Cl)c4)oc3c2)C1 (stereo not given)	10.7 µM	10.7	> 95 µM (inactive)	> 95	> 95
COc1ccc(S(=O)(=O)N2CCCCC2)cc1NC(=O)c1c(F)cccc1Cl	> 100 µM (inactive)	> 100	> 95 µM (inactive)	> 95	> 95
CCN(CCCNC(=O)CNC(=O)c1nn(-c2ccc(OC)cc2OC)c(=O)c2ccccc12)c1cccc(C)c1	> 100 µM (inactive)	> 100	> 95 µM (inactive)	> 95	> 95
Cc1ccc(C(=O)N2CCN(C34CC5CC(CC(C5)C3)C4)CC2)o1	inactive	75.4	> 95 µM (inactive)	> 95	> 95
CCC1Nc2ncnc(N3CCCCC3)c2N(Cc2ccc(C)cc2)C1=O (stereo not given)	> 100 µM (inactive)	> 100	> 95 µM (inactive)	> 95	> 95
Cc1ccc(/C=N/Nc2nc3ccccc3[nH]2)s1	> 100 µM (inactive)	> 100	> 95 µM (inactive)	> 95	> 95
CCC(=NCCc1ccccc1)c1c(O)n(C2CCCCC2)c(=O)[nH]c1=O	> 100 µM (inactive)	> 100	> 95 µM (inactive)	> 95	> 95
CCOC(=O)c1ccc2[nH]c(C)c(C)c2c1	> 100 µM (inactive)	> 100	> 95 µM (inactive)	> 95	> 95
C=CCOc1c(CNc2ncn[nH]2)cccc1OCC	> 100 µM (inactive)	> 100	9.9 µM	9.93	> 95
CCOC(=O)C1(O)CC(C)=NN1C(=O)c1cccc(Br)c1 (stereo not given)	> 100 µM (inactive)	> 100	> 95 µM (inactive)	> 95	> 95
Cc1onc(-c2ccccc2)c1C(=O)Nc1c(C)n(C)n(-c2ccccc2)c1=O	> 100 µM (inactive)	> 100	> 95 µM (inactive)	> 95	> 95
Cc1cn([C@H]2C[C@H](O)[C@@H](CCC(=O)NCCc3ccc4ccccc4c3)O2)c(=O)[nH]c1=O	> 100 µM (inactive)	> 100	> 95 µM (inactive)	> 95	> 95
